Measured values taken from PMC6585620 (Clinical Pharmacology and Therapeutics, 2018).
Like-named read-outs stand apart in the source and are kept apart here.

How the values were obtained:
CYP3A4 [1] = target: T1, CYP3A4 (Homo sapiens, UniProt P08684); assay: In vitro CYP3A4 reversible inhibition; format: in vitro ADME
CYP3A4 [2] = target: T1, CYP3A4; assay: In vitro CYP3A4 time-dependent inhibition; format: in vitro ADME; conditions: measured data
CYP3A4 [3] = assay: In vitro CYP3A4 induction; format: in vitro ADME, human
P‐glycoprotein (P‐gp) [4] = target: T2, P‐glycoprotein (P‐gp) (Homo sapiens, UniProt P08183); assay: In vitro P-gp inhibition; format: in vitro ADME
T2 sequence (P08183 whole entry): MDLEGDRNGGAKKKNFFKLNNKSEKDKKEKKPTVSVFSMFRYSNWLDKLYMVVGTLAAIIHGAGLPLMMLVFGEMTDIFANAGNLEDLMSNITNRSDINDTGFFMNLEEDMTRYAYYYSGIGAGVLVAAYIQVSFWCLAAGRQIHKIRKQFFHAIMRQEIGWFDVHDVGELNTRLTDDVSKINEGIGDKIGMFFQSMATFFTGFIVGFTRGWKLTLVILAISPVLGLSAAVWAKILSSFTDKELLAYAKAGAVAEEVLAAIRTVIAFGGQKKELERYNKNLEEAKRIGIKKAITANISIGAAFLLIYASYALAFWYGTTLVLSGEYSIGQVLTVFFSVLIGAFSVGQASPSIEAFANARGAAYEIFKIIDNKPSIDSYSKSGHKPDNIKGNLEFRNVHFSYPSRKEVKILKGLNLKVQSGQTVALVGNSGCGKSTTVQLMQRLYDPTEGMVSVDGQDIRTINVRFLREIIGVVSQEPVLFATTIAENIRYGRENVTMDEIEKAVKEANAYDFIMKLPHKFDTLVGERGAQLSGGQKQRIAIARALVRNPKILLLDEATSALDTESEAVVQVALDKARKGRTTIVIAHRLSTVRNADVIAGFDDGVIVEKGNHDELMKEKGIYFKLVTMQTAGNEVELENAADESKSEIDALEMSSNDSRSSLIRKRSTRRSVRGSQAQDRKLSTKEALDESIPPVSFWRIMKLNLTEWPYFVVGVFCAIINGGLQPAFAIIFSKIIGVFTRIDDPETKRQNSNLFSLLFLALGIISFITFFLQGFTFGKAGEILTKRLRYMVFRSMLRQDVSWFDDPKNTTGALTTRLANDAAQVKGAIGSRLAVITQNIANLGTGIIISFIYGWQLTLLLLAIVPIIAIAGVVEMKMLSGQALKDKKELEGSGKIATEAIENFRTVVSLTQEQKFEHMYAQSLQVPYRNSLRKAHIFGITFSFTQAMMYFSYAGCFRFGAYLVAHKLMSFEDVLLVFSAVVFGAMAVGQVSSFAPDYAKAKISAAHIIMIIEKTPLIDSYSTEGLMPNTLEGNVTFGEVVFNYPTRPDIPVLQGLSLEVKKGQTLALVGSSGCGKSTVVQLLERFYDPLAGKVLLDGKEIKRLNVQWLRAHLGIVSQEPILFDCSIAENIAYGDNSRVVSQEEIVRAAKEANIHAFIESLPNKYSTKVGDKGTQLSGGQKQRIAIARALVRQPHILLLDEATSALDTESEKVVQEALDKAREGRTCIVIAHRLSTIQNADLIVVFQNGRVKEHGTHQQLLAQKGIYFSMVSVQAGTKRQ

UGT1A1 [5] = target: T3, UGT1A1 (Homo sapiens, UniProt P22309); assay: In vitro UGT1A1 inhibition; format: in vitro ADME; conditions: UGT1A1 (Ki=IC50/2), measured data
T3 sequence (P22309 26-533): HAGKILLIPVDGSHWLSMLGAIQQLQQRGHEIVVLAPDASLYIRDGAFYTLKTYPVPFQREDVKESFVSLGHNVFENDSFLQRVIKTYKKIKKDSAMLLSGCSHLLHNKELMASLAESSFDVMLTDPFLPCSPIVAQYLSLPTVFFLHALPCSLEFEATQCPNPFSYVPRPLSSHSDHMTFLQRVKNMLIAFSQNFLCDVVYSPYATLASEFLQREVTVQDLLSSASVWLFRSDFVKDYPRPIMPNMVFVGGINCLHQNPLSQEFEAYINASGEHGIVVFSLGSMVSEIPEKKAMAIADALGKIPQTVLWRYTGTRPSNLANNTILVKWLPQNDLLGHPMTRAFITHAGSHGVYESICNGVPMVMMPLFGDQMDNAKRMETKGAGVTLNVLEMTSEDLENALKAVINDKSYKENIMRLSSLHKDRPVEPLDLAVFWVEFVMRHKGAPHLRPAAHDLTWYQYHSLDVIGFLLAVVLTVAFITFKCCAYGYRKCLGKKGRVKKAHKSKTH

[6] = Physicochemical properties; conditions: PBPK input
[7] = Blood-to-plasma ratio and plasma unbound fraction; format: in vitro ADME
[8] = Mass balance ADME study with [14C]-olaparib; format: in vivo, human; conditions: Figure S1
[9] = PKPD exposure-response analysis of SOLO2; format: in vivo, human; conditions: for a 50% increase in exposure to olaparib
[10] = PBPK model parameters estimated or predicted in Simcyp; design: species or system human; conditions: for CYP3A CLint: retrograde approach
[11] = observed, cited from earlier work
[12] = cited from earlier work; for Increase in AUC vs normal renal function / Increase in Cmax vs normal renal function: single oral 300 mg tablet
[13] = tablet 300 mg bid, cited from earlier work
P‐glycoprotein (P‐gp) [14] = target: T2, P‐glycoprotein (P‐gp); conditions: read-out: P‐gp inhibition IC50; in vitro; cited from earlier work
UGT1A1 [15] = target: T3, UGT1A1; conditions: read-out: UGT1A1 inhibition IC50; in vitro; cited from earlier work
[16] = capsule model, estimated based on clinical data
[17] = capsule 400 mg single dose, arithmetic mean (min–max)
[18] = tablet 300 mg bid multiple dose
[19] = adults SOLO2 (observed), ref SOLO2 (NCT01874353)

T1 sequence (P08684 whole entry): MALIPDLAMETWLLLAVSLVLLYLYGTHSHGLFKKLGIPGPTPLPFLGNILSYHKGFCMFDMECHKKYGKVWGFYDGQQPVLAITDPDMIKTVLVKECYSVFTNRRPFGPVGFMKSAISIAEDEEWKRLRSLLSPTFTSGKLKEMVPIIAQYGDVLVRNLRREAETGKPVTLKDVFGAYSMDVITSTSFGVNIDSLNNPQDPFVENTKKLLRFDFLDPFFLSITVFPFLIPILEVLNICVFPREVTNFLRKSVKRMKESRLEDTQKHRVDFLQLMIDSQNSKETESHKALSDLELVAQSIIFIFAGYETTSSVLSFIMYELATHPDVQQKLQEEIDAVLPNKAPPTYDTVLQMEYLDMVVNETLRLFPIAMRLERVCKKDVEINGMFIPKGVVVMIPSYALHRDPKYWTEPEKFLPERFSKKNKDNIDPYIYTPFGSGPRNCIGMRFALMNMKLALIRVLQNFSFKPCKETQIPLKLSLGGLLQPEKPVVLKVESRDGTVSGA

## O=C(c1cc(Cc2n[nH]c(=O)c3ccccc23)ccc1F)N1CCN(C(=O)C2CC2)CC1 [Olaparib]
CYP3A4 [1]
  Ki: 59.5 µM
CYP3A4 [2]
  CYP3A4 TDI KI: 72.2 (measured data) μM
CYP3A4 [3]; human
  EC50: 17.7 µM
CYP3A4 [3]; measured data
  CYP3A4 induction Emax: 48.1 (measured data) fold
P‐glycoprotein (P‐gp) [4]
  Ki: 73.9 µM
UGT1A1 [5]
  Ki: 48.4 µM
[6]
  pKa: Neutral
[6]; measured data
  Log P: 1.55 (measured data)
[7]; fraction unbound in plasma, measured data
  fu,plasma: 0.181 (measured data)
[7]; human, plasma
  fraction unbound: 0.181
[8]
  Share of total clearance by oxidation via CYP3A4/5: 84%
  Share of total clearance by renal elimination: 16%
[9]
  Predicted drop in hemoglobin level: ~17.5%
[10]; [16]
  CLpo: 6.07 (estimated based on clinical data) L/h
  Peff,man: 644 ×10⁻⁶ cm/s (estimated based on clinical data)
[10]; capsule model
  CYP3A CLint: 0.0412 (retrograde approach) µL/min/pmol of isoform
[10]; tablet model, estimated based on clinical data
  CLpo: 7.6 (estimated based on clinical data) L/h
[10]; tablet model
  CYP3A CLint: 0.057 (retrograde approach) µL/min/pmol of isoform
[11]; [17]
  AUCt (range): 56.2 (21.9–299) h·µg/mL
  Cmax (range): 4.44 (3–15) µg/mL
[11]; [18]
  AUCss (range): 63.8 (25.5–189) h·µg/mL
  Cmax (range): 9.71 (4.8–24.9) µg/mL
[11]; tablet 300 mg single dose, arithmetic mean (min–max)
  Cmax (range): 7.41 (2.6–19.1) µg/mL
[12]; based on clinical data, ref NCT01894256
  Renal clearance: 1.48 (based on clinical data: NCT01894256) L/h
[12]; mild and moderate hepatic impairment
  Change in AUC and Cmax vs normal hepatic function: < 15%
[12]; mild renal impairment
  Increase in AUC vs normal renal function: 24%
  Increase in Cmax vs normal renal function: 15%
[12]; moderate renal impairment
  Increase in AUC vs normal renal function: 44%
  Increase in Cmax vs normal renal function: 26%
[13]; adults OlympiAD (observed), ref OlympiAD (NCT02000622)
  Geometric mean AUC (95% CI): 41.2 (36.1‐47.0) h·µg/mL
[13]; [19]
  Geometric mean AUC (95% CI): 40.7 (37.7–44.0) h·µg/mL
  Geometric mean Cmax (95% CI): 7.12 (6.75–7.51) μg/mL
P‐glycoprotein (P‐gp) [14]
  IC50: 76 µM
UGT1A1 [15]
  IC50: 96.7 µM
